Measurements reported in US20070197608A1, “Piperazines as oxytocin agonists” (Ferring B.V., priority 2003, published 2007).
pEC50: −log10 of the molar value.

Molecular target: T1, human OT receptor (Homo sapiens, UniProt P30559)
T1 construct: expressed in transfected cells; host or cells: mammalian cell line, e.g. Chinese hamster ovary (CHO), stably or transiently transfected; co-transfected with a firefly luciferase reporter (e.g. NFAT promoter)
T1 sequence (P30559 1-389): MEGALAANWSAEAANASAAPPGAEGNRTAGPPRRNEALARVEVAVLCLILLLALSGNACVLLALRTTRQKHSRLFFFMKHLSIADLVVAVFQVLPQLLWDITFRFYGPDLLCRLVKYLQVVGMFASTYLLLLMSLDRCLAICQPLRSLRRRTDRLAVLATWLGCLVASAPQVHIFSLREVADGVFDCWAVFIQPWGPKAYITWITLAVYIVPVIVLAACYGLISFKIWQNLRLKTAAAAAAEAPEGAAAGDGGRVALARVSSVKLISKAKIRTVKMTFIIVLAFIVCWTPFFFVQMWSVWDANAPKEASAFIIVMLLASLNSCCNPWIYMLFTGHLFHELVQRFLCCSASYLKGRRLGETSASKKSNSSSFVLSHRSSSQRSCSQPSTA
Assay: human OT receptor agonist assay, luciferase reporter (NFAT promoter) in transfected CHO cells
Type: cell-based
Settings: for OT (efficacy): maximal efficacy compared to the maximal stimulation observed with OT; for pEC50: concentration at which the response is 50% of the maximum, 4-parameter logistic fit, luciferase reporter in cells expressing the human OT receptor
Protocol: In addition, the cells are transfected with a gene for firefly luciferase under the control of a suitable promoter, e.g. NFAT promoter. Contact of the OT receptor by an agonist leads to stimulation of luciferase synthesis, the extent of which is measured using commercially available reagents. Concentrations at which the response is 50% of the maximum are calculated by fitting of data to 4-parameter logistic curves. Maximal efficacy is calculated compared to the maximal stimulation observed with OT.

| OT (efficacy) [%] | pEC50 | Compound |
| --- | --- | --- |
| 76 | – | Cc1cc(C(=O)N2Cc3cnn(C)c3Nc3ccccc32)ccc1CNC(=O)N1CCN(Cc2cc(O)cc(O)c2)CC1 [Example 1, 4-(3,5-Dihydroxy-benzyl)-piperazine-1-carboxylic acid 2-methyl-4-(3-methyl-4,10-dihydro-3H-2,3,4,9-tetraaza-benzo[f]azulene-9-carbonyl)-benzylamide] |
| 16 | 7.62 | Cc1cc(C(=O)N2Cc3cnn(C)c3Nc3ccccc32)cc(C)c1CNC(=O)N1CCN(Cc2cc(O)cc(O)c2)CC1 [Example 2, 4-(3,5-Dihydroxy-benzyl)-piperazine-1-carboxylic acid 2,6-dimethyl-4-(3-methyl-4,10-dihydro-3H-2,3,4,9-tetraaza-benzo[f]azulene-9-carbonyl)-benzylamide] |
| 41 | 7.24 | Cn1ncc2c1Nc1ccccc1N(C(=O)c1ccc(CNC(=O)N3CCN(Cc4cc(O)cc(O)c4)CC3)cc1Cl)C2 [Example 3, 4-(3,5-Dihydroxy-benzyl)-piperazine-1-carboxylic acid 3-chloro-4-(3-methyl-4,10-dihydro-3H-2,3,4,9-tetraaza-benzo[f]azulene-9-carbonyl)-benzylamide] |
| 51 | 7.13 | Cn1ncc2c1Nc1ccccc1N(C(=O)c1ccc(CNC(=O)N3CCN(Cc4cc(O)cc(O)c4)CC3)c(F)c1)C2 [Example 4, 4-(3,5-Dihydroxy-benzyl)-piperazine-1-carboxylic acid 2-fluoro-4-(3-methyl-4,10-dihydro-3H-2,3,4,9-tetraaza-benzo[f]azulene-9-carbonyl)-benzylamide] |
| 13 | 7.48 | Cc1cc(C(=O)N2Cc3cnn(C)c3Nc3ccccc32)ccc1CNC(=O)N1CCN(Cc2cccc(C(=O)N(C)C)c2)CC1 [Example 5, 4-(3-Dimethylcarbamoyl-benzyl)-piperazine-1-carboxylic acid 2-methyl-4-(3-methyl-4,10-dihydro-3H-2,3,4,9-tetraaza-benzo[f]azulene-9-carbonyl)-benzylamide] |
| 21 | 6.72 | Cc1cc(C(=O)N2Cc3cnn(C)c3Nc3ccccc32)ccc1CNC(=O)N1CCN(Cc2cccc(C(=S)N(C)C)c2)CC1 [Example 6, 4-(3-Dimethylthiocarbamoyl-benzyl)-piperazine-1-carboxylic acid 2-methyl-4-(3-methyl-4,10-dihydro-3H-2,3,4,9-tetraaza-benzo[f]azulene-9-carbonyl)-benzylamide] |
